The values below come from article PMC9571063 (Molecules, 2022).

Where “and” joins values, the source holds several entries; their conditions need not be identical. Identical values can stand only once. Counter-ions that a name gives are not always drawn. Like-named read-outs stand apart in the source and are kept apart here. A value given as a limit tells only on which side of the number the result lay.

A short description of data set [1]: cytotoxic assay, nuclei count (Hoechst, HCS). Type of data set: cell-based. As to conditions: human, 48 h treatment.
Data set [2] can be described thus: cytotoxic assay, nuclei count (Hoechst, HCS). Type of data set: cell-based. As to conditions: human, MCF7 cells (breast carcinoma); 48 h treatment; read-out: Cytotoxic studies IC50 MCF7.
Data set [3] concerns the target T1, HsCLK1 (Homo sapiens, UniProt P49759).
T1 construct: host or cells: Sf9 insect cells (baculovirus)
As to the kind of experiment: ADP-Glo kinase assay. Type of data set: biochemical. (In general: In ADP-Glo the light output rises with the ADP produced.)

For data set [4], the target named is T2, Hs_HASPIN (Homo sapiens, UniProt Q8TF76).
T2 construct: host or cells: bacteria
T2 sequence (Q8TF76 1-798): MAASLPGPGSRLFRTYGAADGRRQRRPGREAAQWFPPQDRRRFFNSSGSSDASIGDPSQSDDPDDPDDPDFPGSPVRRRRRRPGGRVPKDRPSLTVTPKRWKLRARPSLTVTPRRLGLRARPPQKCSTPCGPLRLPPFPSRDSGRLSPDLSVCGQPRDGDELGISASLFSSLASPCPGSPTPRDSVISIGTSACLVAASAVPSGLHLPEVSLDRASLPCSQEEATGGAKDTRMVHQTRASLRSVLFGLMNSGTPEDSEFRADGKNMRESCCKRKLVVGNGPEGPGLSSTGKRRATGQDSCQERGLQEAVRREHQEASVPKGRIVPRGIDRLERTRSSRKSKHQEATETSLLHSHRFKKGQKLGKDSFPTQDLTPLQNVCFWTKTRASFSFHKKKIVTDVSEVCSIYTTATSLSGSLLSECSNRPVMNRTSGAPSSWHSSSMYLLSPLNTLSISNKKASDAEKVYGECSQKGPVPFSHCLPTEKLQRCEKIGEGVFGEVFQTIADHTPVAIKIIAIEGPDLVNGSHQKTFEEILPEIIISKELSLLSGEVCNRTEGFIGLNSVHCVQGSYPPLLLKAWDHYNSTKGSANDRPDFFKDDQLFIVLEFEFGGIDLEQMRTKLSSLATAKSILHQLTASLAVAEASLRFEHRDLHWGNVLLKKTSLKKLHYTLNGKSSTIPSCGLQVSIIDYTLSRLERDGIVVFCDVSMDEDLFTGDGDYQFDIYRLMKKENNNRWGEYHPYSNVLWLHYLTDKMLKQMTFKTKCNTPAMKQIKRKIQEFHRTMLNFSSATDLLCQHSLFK
Put plainly: ADP-Glo kinase assay, primary screen. In kind it is biochemical. As to conditions: n=2, read-out: % of residual activity Hs_HASPIN.

The nature of data set [5]: cytotoxic assay, nuclei count (Hoechst, HCS). Type of data set: cell-based. As to conditions: human, HuH7 cells (hepatocellular carcinoma); 48 h treatment; read-out: Cytotoxic studies IC50 HuH7.
Data set [6] can be described thus: cytotoxic assay, nuclei count (Hoechst, HCS). Type of data set: cell-based. As to conditions: human, Caco-2 cells (colorectal adenocarcinoma); 48 h treatment; read-out: Cytotoxic studies IC50 Caco2.
Data set [7] in a line: cytotoxic assay, nuclei count (Hoechst, HCS). In kind it is cell-based, human. As to conditions: human, human skin fibroblasts (non-cancerous reference cells); 48 h treatment; some cells add low/moderate/high amplitude; read-out: Cytotoxic studies IC50 Fibroblasts.
The target of data set [8] is T3, Hs_PIM1 (Homo sapiens, UniProt P11309).
T3 construct: host or cells: Sf9 insect cells (baculovirus)
T3 sequence (P11309 whole entry): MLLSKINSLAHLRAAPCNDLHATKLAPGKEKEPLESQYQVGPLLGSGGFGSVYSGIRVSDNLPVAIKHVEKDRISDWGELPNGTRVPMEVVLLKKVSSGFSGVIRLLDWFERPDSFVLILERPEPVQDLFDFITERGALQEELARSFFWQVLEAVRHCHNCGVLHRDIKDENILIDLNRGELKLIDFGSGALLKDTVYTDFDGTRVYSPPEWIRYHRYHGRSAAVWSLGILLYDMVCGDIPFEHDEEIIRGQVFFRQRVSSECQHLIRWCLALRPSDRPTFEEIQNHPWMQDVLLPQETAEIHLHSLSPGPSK
Put plainly: ADP-Glo kinase assay, primary screen. As to conditions: n=2, read-out: % of residual activity Hs_PIM1. In kind it is biochemical.

Data set [9] in a line: cytotoxic assay, nuclei count (Hoechst, HCS). Type of data set: cell-based. As to conditions: human, MDA-MB-231 cells (breast carcinoma); 48 h treatment; read-out: Cytotoxic studies IC50 MDA-MB-231.
Data set [10] concerns the target T4, HsDYRK1A (Homo sapiens, UniProt Q13627).
T4 construct: host or cells: Sf9 insect cells (baculovirus)
Put plainly: ADP-Glo kinase assay. In kind it is biochemical. As to conditions: for remaining activity at 1 µM / remaining activity at 10 µM: n=2, read-out: % of residual activity Hs_DYRK1A; for IC50: 10 µM ATP, duplicate.

Data set [11] has as its target T5, Hs_CDK9/CyclinT (Homo sapiens, UniProt P50750).
T5 construct: host or cells: Sf9 insect cells (baculovirus)
As to the kind of experiment: ADP-Glo kinase assay, primary screen. Type of data set: biochemical. As to conditions: n=2, read-out: % of residual activity Hs_CDK9/CyclinT.

For data set [12], the target named is T6, Rn_DYRK1A (Rattus norvegicus, UniProt Q63470).
T6 construct: host or cells: bacteria
As to the kind of experiment: ADP-Glo kinase assay, primary screen. Type of data set: biochemical. As to conditions: n=2, read-out: % of residual activity Rn_DYRK1A.

The mark [13] stands for this setting: HCT116 cells (colorectal adenocarcinoma), read-out: Cytotoxic studies IC50 HCT116.
[14] abbreviates: MDA-MB-468 cells (breast carcinoma), read-out: Cytotoxic studies IC50 MDA-MB-468.
Setting [15] is: 10 µM ATP, duplicate, read-out: IC50 HsCLK1.

T1 sequence (P49759 whole entry): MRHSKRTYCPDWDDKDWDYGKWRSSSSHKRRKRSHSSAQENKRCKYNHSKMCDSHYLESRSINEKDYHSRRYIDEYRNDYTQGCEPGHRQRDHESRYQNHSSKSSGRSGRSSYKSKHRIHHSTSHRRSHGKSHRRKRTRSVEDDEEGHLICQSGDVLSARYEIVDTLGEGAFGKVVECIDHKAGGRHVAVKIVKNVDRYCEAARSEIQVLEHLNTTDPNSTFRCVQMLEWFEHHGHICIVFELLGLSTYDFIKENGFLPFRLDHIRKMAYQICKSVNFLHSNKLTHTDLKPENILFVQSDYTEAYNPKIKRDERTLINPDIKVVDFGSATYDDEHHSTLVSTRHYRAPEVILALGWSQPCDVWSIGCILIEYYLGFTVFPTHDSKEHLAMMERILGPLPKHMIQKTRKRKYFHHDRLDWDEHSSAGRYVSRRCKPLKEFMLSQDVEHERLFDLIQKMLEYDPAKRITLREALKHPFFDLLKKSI
T5 sequence (P50750 whole entry): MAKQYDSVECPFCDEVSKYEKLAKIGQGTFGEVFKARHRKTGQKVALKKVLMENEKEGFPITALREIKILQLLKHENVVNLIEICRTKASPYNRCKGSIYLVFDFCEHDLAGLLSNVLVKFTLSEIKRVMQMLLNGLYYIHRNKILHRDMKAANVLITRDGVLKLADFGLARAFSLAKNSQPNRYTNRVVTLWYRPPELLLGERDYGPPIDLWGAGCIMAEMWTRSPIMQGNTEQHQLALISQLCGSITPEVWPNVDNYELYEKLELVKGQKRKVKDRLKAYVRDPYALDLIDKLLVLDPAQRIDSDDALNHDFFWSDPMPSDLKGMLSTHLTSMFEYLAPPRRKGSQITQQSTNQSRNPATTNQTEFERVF
T5 sequence (O60563 whole entry partner): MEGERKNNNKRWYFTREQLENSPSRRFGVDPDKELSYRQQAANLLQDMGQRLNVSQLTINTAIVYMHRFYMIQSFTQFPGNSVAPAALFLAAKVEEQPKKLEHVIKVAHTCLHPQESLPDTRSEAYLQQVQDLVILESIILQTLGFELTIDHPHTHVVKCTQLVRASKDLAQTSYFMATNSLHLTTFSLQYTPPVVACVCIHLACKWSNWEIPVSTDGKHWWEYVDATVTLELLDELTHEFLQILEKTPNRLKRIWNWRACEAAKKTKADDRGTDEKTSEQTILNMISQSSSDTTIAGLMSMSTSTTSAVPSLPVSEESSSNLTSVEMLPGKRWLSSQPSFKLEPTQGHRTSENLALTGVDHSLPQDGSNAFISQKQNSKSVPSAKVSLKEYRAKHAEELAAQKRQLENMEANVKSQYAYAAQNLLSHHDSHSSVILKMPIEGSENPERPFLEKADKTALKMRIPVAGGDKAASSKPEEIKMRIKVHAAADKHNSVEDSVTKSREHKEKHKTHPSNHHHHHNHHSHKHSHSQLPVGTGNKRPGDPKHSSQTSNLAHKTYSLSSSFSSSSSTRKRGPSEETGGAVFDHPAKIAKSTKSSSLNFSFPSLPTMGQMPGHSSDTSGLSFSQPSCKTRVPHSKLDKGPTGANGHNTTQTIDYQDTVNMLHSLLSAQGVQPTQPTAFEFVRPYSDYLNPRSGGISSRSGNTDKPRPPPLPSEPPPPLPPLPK

On to `Cc1ccc(-n2cc(COc3cccc4cnc(Nc5cc(Cl)cc(Cl)c5)nc34)nn2)c([N+](=O)[O-])c1` [7b, N-(3,5-dichlorophenyl)-8-((1-(4-methyl-2-nitrophenyl)-1H-1,2,3-triazol-4-yl)methoxy)quinazolin-2-amine], for which the IC50 (usually the concentration that gives 50% inhibition) at 48 h is > 25 µM in data set [1] (setting [13]); > 25 µM in [1] (setting [14]); 24 µM in data set [2]; > 25 µM in data set [5]; > 25 µM in data set [6]; > 25 µM in data set [7]. Moreover, in data set [9], the IC50 at 48 h is > 25 µM. For the same molecule, the IC50 in [3] (setting [15]) is 0.085 µM; in [10], > 100 µM. Also, the remaining activity at 1 µM in data set [4] is 81%; in [8] it was 87%; in data set [10], ≥ 100%; in [11], 80%; in data set [12], 87%. Also, the remaining activity at 10 µM in data set [4] stood at 46%; in data set [8] it was 84%; in data set [10], 80%; in [11], 34%; in data set [12], 95%. Moreover, the “activity on the human DYRK1A” value in data set [10] is “completely inactive”.

In the case of `O=[N+]([O-])c1cc(Br)ccc1-n1cc(COc2cccc3cnc(Nc4cccc(Cl)c4)nc23)nn1` [12d, N-(3-Chlorophenyl)-8-((1-(4-bromo-2-nitrophenyl)-1H-1,2,3-triazol-4-yl)methoxy)quinazolin-2-amine], the IC50 at 48 h in [1] (setting [13]) was > 25 µM; in data set [1] (setting [14]), > 25 µM; in [2], > 25 µM; in data set [5], 2 µM; in [6], > 25 µM; in [7], 13 µM. In addition, the IC50 at 48 h in [9] was > 25 µM. In data set [3] (setting [15]), the IC50 was 0.2 to 0.3 µM and 0.378 µM. The remaining activity at 1 µM in data set [4] was 91%; in data set [8] it was 85%; in [10], ≥ 100%; in data set [11], 85%; in [12] it was ≥ 100%. For the same molecule, the remaining activity at 10 µM in [4] came to 95%; in [8], 70%; in data set [10], 77%; in [11], 43%; in data set [12] it was 76%.

As to `O=[N+]([O-])c1cc(CO)ccc1-n1cc(COc2cccc3cnc(Nc4cccc(Cl)c4)nc23)nn1` [12e, 4-(4-(((2-((3-Chlorophenyl)amino)quinazolin-8-yl)oxy)methyl)-1H-1,2,3-triazol-1-yl)-3-nitrobenzyl alcohol], the IC50 at 48 h in data set [1] (setting [13]) stood at 3 µM; in [1] (setting [14]) it was 4 µM; in data set [2], 4 µM; in data set [5], 3 µM; in [6], 7 µM; in data set [7] it was 6 µM. Besides, the IC50 at 48 h in data set [9] was 6 µM. Further, the IC50 is 0.146 µM in data set [3] (setting [15]); 0.15 to 0.2 µM in data set [3] (read-out: IC50 human CLK1); 2.3 µM and 2.33 µM in [10]. For the same molecule, the remaining activity at 1 µM in data set [4] is 92%; in data set [8], 96%; in [10], 84%; in data set [11], 74%; in data set [12] it was 80%. For the same molecule, the remaining activity at 10 µM was 88% in data set [4]; 69% in [8]; 31% in data set [10]; 21% in [11]; 34% in data set [12].

On to `COC(=O)c1ccc(-n2cc(COc3cccc4cnc(Nc5cccc(Cl)c5)nc34)nn2)c([N+](=O)[O-])c1` [12f, Methyl 4-(4-(((2-((3-chlorophenyl)amino)quinazolin-8-yl)oxy)methyl)-1H-1,2,3-triazol-1-yl)-3-nitrobenzoate], for which the IC50 at 48 h in data set [1] (setting [13]), in data set [1] (setting [14]), in [2], in data set [5], in data set [6] and in data set [7] was > 25 µM throughout. Also, the IC50 at 48 h in [9] is > 25 µM. Besides, the IC50 in data set [3] (setting [15]) came out at 0.293 µM. Besides, the remaining activity at 1 µM is 73% in data set [4]; 73% in data set [8]; ≥ 100% in data set [10]; 73% in data set [11]; ≥ 100% in data set [12]. Besides, the remaining activity at 10 µM in data set [4] was determined as 76%; in data set [8], 66%; in [10], 93%; in data set [11], 45%; in [12] it was 83%.

Consider `O=C(O)c1ccc(-n2cc(COc3cccc4cnc(Nc5cccc(Cl)c5)nc34)nn2)c([N+](=O)[O-])c1` [12g, 4-(4-(((2-((3-Chlorophenyl)amino)quinazolin-8-yl)oxy)methyl)-1H-1,2,3-triazol-1-yl)-3-nitrobenzoic acid], for which the IC50 at 48 h in [1] (setting [13]), in data set [1] (setting [14]), in [2], in data set [5], in data set [6] and in data set [7] was > 25 µM throughout. Moreover, the IC50 at 48 h in data set [9] is > 25 µM. For the same molecule, the figures for the IC50 in data set [3] (setting [15]) and in data set [10] were 0.004 µM and 3.94 µM, respectively. Also, the remaining activity at 1 µM in [4] amounted to 75%; in data set [8] it was 66%; in data set [10], 86%; in data set [11], 38%; in [12], 61%. The remaining activity at 10 µM in [4] was 69%; in data set [8], 31%; in [10] it was 50%; in [11], 21%; in data set [12] it was 39%.

With `N[C@H]1CC[C@@H](n2cc(COc3cccc4cnc(Nc5cc(Cl)cc(Cl)c5)nc34)nn2)CC1` [16b, 8-((1-((cis)-4-Aminocyclohexyl)-1H-1,2,3-triazol-4-yl)methoxy)-N-(3,5-dichlorophenyl)quinazolin-2-amine hydrochloride], the IC50 at 48 h in data set [1] (setting [13]) was 2.4 µM; in [1] (setting [14]), 1 µM; in [2] it was 3 µM; in data set [5], 2 µM; in data set [6], 3 µM; in data set [7] it was 2 µM. The IC50 at 48 h in data set [9] was 2 µM. The IC50 in [3] (setting [15]) is 0.053 µM; in data set [10] it was 1.9 µM. Moreover, the remaining activity at 1 µM in [4] came to 76%; in [8] it was 69%; in data set [10], 85%; in [11], 61%; in data set [12], 71%. The remaining activity at 10 µM in [4] was determined as 76%; in data set [8], 15%; in data set [10], 38%; in [11], 18%; in [12], 20%.
